Key:
MCF7 cells = assay: Oxygen consumption rate, parental MCF7 cells; assay type: cell-based, human; details: 40 μM heme for 1 hour
mutant HP motif peptide = assay: Heme absorbance-shift assay with mutant HP motif peptide; assay type: binding; details: both histidine residues in the HP motif peptide mutated to alanine
Method: Peptide synthesis. Wild-type HP motif peptide (HPSALAQPSGLAHP) and mutant HP motif peptide (APSALAQPSGLAAP) were synthesized using solid-phase synthesis and purified using HPLC by the Biopolymers & Proteomics Core at the Koch Institute for Integrative Cancer Research.
Heme absorbance-shift assay. Hemin was prepared fresh before each experiment. Approximately 20 mg of hemin (Sigma) was placed in a fresh tube and resuspended with 1 mL of DMSO. The hemin solution was slowly diluted while mixing with 1 mL of 2× buffer C (25 mM HEPES-NaOH pH 7.8, 10 mM NaCl), and aggregated hemin was eliminated by passing the solution through a 0.2 μm filter unit. Hemin concentration was determined by diluting the filtered solution with 1× buffer C 1:100 and using the extinction coefficient of 58,400 cm^−1M^−1 at 385 nm. For each reaction, the 200 μL reaction mix containing 100 μM hemin, 25 mM HEPES-NaOH pH 7.8, 10 mM NaCl, and various concentrations of wild-type or mutant NTD protein, was placed in a transparent 96-well plate. Absorbance intensity was measured using Tecan Infinite M200 Pro microplate reader, between 330 and 550 nm using 5 nm steps. The absorbance intensity for dissolved hemin was subtracted from absorbance intensity from hemin incubated with various concentrations of protein.

[1] = molecular target: T1, MFSD7C-SERCA2b co-localization (Homo sapiens, UniProt Q9UPI3); assay: Confocal co-localization of MFSD7C and SERCA2b in THP-1 cells; assay type: cell-based; details: 40 μM heme 1 hour, 0.89 without heme
T1 construct: host or cells: THP-1 cells
Method: FIGS. 16A-16F show Co-localization of MFSD7C and SERCA2b. […] Shown are representative images of THP-1 cells stained for MFSD7C (red), SERCA2b (green), nuclei (blue) and merged image. […] THP-1 cells were not treated or treated with 40 μM of heme for 1 hour and then stained for MFSD7C, SERCA2b and nuclei as in (FIG. 16A). Co-localization between MFSD7C and SERCA2b was quantified. Shown are representative merged images (FIG. 16B) and comparison of Pearson's correlation coefficients values with or without heme treatment (FIG. 16C) (in FIG. 16C, n=7 biologically independent samples). P-values were calculated using unpaired t-test (***p<0.05). […] THP-1 cells were stained for MFSD7C (red), ER (green), mitochondria (blue), and DNA (grey). Shown are representative single and merged images (FIG. 16D). Enlarged image of the boxed area is shown in the last panel (bottom-right). Pearson's rank correlation values between the indicated comparisons are shown (FIG. 16E). (n=3 biologically independent samples). […] THP-1 cells were incubated with FPT for 6 hours, washed, treated with or without 4 μM thapsingargin for 2 hours. The cells were washed and reseeded in poly-lysine coated glass bottom dishes. After cells attached to the glass, medium containing 40 μM heme was added. Cells in the same field were imaged immediately (0 min) and again 1 hour later. […]

[2] = molecular target: T2, interaction between HMOX1 and MFSD7C (Mus musculus, UniProt Q91X85); assay: Co-IP of HA-tagged MFSD7C with FLAG-tagged HMOX1 in transfected 293FT cells; assay type: cell-based, murine; details: 10 μM or 40 μM heme for one hour before cell lysis
T2 construct: expressed in transfected cells; host or cells: 293FT cells
Method: Co-transfection and immunoprecipitation. For co-IP, HA-tagged MFSD7C was co-transfected with FLAG-tagged HMOX1 (Origene Catalog No. MR203944), CYC1, COX4I1, NDUFA4, ATP5h, ATP5c1 into 293FT cells using TransIT®-LT1 Transfection Reagent (Mirus). Thirty-six hours after transfection, the cells were lysed using cold Lysis Buffer containing 20 mM Tris-HCl (pH 7.4), 150 mM NaCl, 0.1% NP-40, 10% glycerol, proteinase inhibitor (Sigma Catalog No. 4693132001), and phosphatase inhibitors (Sigma Catalog No. 4906845001). The clear supernatants from the lysate were incubated with M2-magnetic beads conjugated with anti-FLAG antibody (Sigma Catalog No. M8823) for 2 hours at 4° C. Then the beads were washed twice and eluted by the 3× FLAG peptides (Sigma Catalog No. F4799).
To determine the effect of heme on MFSD7C interactions with ETC components, HMOX1 or SERCA2b, 293FT cells were transiently transfected with HA-tagged murine MFSD7C and FLAG-tagged murine CYC1, NDUFA4, COX4i1, ATP5h, ATP5c1, HMOX1 or SERCA2b. 35 hrs later, co-transfected cells were incubated with DMSO (vehicle) or 10 μM or 40 μM of heme for one hour before lysis. Cell lysates were precipitated with anti-HA antibody, eluted with HA peptide, further precipitated with anti-FLAG antibody, eluted with FLAG peptide, and then subjected to Western blotting with anti-HA and anti-FLAG antibodies. […]

Serca2b^−/− THP-1 cells = assay: Thermogenesis by FPT in Serca2b knockout THP-1 cells; assay type: cell-based, human; details: 40 μM heme 1 hour, FPT flow cytometry
Method: FIGS. 5A-5F show MFSD7C and heme regulate thermogenesis through SERCA2b in THP-1 cells. […] 30 hours later, MG132 was added into half of the cells and the other half was not treated. Another 35 hours later, some cells were treated with 40 μM heme for 1 hour before lysis. Cell lysates were immunoprecipitated with anti-FLAG antibody, and eluted, followed by anti-HA immunoprecipitation and elution. Total cell lysate and elute were subjected to Western blotting and probed with anti-SERCA2b or anti-MFSD7C antibodies. Shown are representative data from one of three experiments. […] 24 hrs later, cells were either not treated or treated with 10 μM MG132 for either 6 or 12 hours. The cells were lysed and subjected to FLAG pull-down and blotted with anti-MFSD7C, anti-SERCA2b and anti-ubiquitin antibodies. Shown are representative data from one of three experiments. […] Parental THP-1 cells were either not treated or treated with heme before lysis. Shown are representative data from one of four experiments. […] Shown are representative data from one of two experiments. […] Cells were washed and treated with 40 μM heme for one hour before flow cytometry. Representative FPT histograms from one of three experiments are shown. […]
In the second approach, we used fluorescent polymeric thermometer (FPT), which we synthesized in-house (see above). […] Then the fluorescence intensities were determined by a flow cytometer.

T2 sequence (Q91X85 whole entry): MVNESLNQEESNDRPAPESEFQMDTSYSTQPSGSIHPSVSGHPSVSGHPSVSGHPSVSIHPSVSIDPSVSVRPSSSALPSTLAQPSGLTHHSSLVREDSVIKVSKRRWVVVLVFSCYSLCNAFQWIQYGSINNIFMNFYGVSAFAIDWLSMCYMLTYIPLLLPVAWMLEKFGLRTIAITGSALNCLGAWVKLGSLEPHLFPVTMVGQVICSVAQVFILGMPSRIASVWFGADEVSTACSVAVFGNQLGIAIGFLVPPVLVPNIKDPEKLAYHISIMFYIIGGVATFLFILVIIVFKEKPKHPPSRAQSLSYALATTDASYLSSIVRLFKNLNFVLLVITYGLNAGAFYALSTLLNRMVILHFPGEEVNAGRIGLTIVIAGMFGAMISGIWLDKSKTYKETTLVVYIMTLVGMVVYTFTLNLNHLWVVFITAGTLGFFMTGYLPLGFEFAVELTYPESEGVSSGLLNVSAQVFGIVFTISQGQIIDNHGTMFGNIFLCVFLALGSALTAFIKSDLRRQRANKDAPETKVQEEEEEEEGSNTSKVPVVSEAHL
T2 sequence (P14901 whole entry partner): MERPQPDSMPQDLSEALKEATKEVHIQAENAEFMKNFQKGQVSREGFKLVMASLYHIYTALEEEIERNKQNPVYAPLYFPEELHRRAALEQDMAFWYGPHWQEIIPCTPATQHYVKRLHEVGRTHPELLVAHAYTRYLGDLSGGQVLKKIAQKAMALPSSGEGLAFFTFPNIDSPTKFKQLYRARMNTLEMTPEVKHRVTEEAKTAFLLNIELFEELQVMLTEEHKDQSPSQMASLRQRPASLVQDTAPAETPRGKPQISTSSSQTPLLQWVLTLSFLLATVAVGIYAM
T1 sequence (Q9UPI3 whole entry): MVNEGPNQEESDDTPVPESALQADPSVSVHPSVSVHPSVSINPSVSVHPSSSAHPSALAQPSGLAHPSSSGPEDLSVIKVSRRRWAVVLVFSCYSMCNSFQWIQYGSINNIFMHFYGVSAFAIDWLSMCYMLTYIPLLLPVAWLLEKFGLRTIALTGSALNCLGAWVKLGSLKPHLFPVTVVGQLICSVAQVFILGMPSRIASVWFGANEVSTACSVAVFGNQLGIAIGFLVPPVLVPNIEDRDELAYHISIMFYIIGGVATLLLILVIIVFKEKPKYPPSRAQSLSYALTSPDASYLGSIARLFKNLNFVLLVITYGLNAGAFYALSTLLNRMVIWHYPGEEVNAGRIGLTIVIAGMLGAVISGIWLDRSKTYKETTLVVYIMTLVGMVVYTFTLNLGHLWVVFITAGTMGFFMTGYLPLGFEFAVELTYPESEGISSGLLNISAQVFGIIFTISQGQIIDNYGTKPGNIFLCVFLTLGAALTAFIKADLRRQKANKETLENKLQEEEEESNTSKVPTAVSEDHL

C=CC1=C(C)c2cc3[n-]c(cc4[n-]c(cc5nc(cc1n2)C(C)=C5C=C)c(C)c4CCC(=O)O)c(CCC(=O)O)c3C.[Fe+2] [heme]
OCR (MCF7 cells): significantly stimulated | absorbance shift of heme (mutant HP motif peptide): abolished | Pearson's correlation coefficient value of MFSD7C/SERCA2b co-localization [1]: 0.67 | interaction between HMOX1 and MFSD7C (co-IP) [2]: enhanced | thermogenesis following heme treatment (Serca2b^−/− THP-1 cells): significantly diminished

— patent US20230313199A1, “TARGET FOR MODULATING BODY MASS” (Massachusetts Institute of Technology, priority 2020, published 2023)
